Like-named read-outs stand apart in the source and are kept apart here.
How the values were obtained:
[1] = Glucuronide kinetics assay (release of β-lapachone after β-glucuronide deprotection); format: physicochemical
Experimental: Glucuronide prodrug (37a, b, c, d) was dissolved in DMSO to a concentration of 10 mM. A 100 mM stock solution of warfarin in DMSO was also prepared. To obtain deprotected para-hydroxybenzyl ketol species, the glucuronide stock solution was dissolved in PBS with 16.7% DMF to a concentration of 1.7 mM. 15 μL of a stock solution of R-glucuronidase from E. coli K-12 (Roche #03707580001, 140 U/mL) was added to 900 μL of this stock and incubated for 20 min at 37° C. 15 μL of a 100 mM stock of warfarin internal standard in DMSO was added. Reactions were then set up immediately. For a reaction, 30 μL of the amino-benzyl ketol/standard stock was added to 195 μL of citrate-phosphate buffer at the specified pH. Test samples were incubated at 37° C. with shaking. At the recorded time points, 20 μL aliquots of the reactions were analysed by HPLC (254 nm, Agilent 1260 Infinity). HPLC conditions: column Agilent InfinityLab Poroshell 120 SB—C18 2.7 μm, 50×4.6 mm; solvent system A=H2O+0.1% TFA, B=acetonitrile+0.1% TFA; flow=1 mL/min. Gradient: t=0-1 min 0% B, t=1-2 min 0-30% B, t=2-17 min 30-40% B, t=17-17.1 min 40-100% B, t=17.1-18 min 100% B, t=18-23 min 0% B. Relative peak area represents raw peak area (mAU*s) normalized to raw peak area of the warfarin internal standard. Values recorded are averages of three independent reactions and error bars display standard error of the mean. Values were fitted to first-order kinetics using GraphPad Prism 9 software. A positive control experiment was performed under identical conditions with known substrate 4-nitrophenyl-β-D-glucuronide (Sigma Aldrich) to confirm enzyme activity.

[2] = system: Panc-1 pancreatic cancer cell line; test: CellTiter Glo viability assay, Panc-1; format: cell-based; conditions: for IC50: Homo sapiens, PANC-1, 48 h; for toxicity without the β-glucuronidase enzyme: Panc-1, up to 100 μM
Experimental: (§1) For CellTiter Glo viability assays, 10,000 cells per well were plated on Day 1 and were allowed to adhere to the plate surface for 24 hours. Optimized concentration ranges of prodrugs were determined and made via serial dilution. […] Cells were incubated with compound for 48 hours and viability was assessed on Day 4 using the CellTiter Glo Viability assay which measures metabolically active cells by quantifying the amount of ATP present.
(§2) Panc-1 cells were obtained from Tony Kouzarides' lab in the Gurdon Institute at the University of Cambridge and put into culture at passage 10 containing DMEM media (Gibco) supplemented with 1% Pen-Strep antibiotic (Gibco), 1% L-glutamine, and 10% fetal bovine serum (FBS, sterile-filtered). Aspc-1 cells were bought commercially from the American Type Culture Collection (ATCC) and put into culture containing RPMI 1640 media (Gibco) supplemented with 1% Pen-Strep antibiotic (Gibco), 1% L-glutamine, and 20% fetal bovine serum (FBS, sterile-filtered). All cell lines were started at passage 10 and passaged every 3 days by centrifuging at 1000 rpm for 4 minutes.

[3] = system: Aspc-1 pancreatic cancer cell line; test: CellTiter Glo viability assay, Aspc-1; format: cell-based; conditions: for toxicity without the β-glucuronidase enzyme: Aspc-1, up to 100 μM; for IC50: Homo sapiens, ASPC1, 48 h
Experimental: as §1, §2

[4] = 1H NMR kinetic analysis of elimination of PAB-PhQ; format: physicochemical; conditions: 25° C., moderately acidic methanolic solution
Experimental: Kinetics of the release of PhQ 4, from PAB-PhQ 7 were monitored by ^1H NMR at 25° C. Analysis was performed in MeOD due to poor solubility of the compound in H2O. To form the active eliminating species, Boc-PAB-PhQ 6 was dissolved in dichloromethane/trifluoroacetic acid 4:1 at 0° C. and stirred for 30 min, upon which the reaction appeared complete by thin-layer chromatography. Product 7 was dried in vacuo before being dissolved in MeOD. Basicity of the solution was altered by addition of triethylamine (drops). pH was estimated using pH paper. pH values are indicative only as analysis is performed in MeOD. Elimination rates were determined from the aromatic region. Kinetics were measured by monitoring the integral of one peak, normalised to number of protons present (i.e. integral of 1H), divided by the total integral of the aromatic region (δ=6.2-8.6 ppm, i.e. integral of 12H). Analysis was performed using Mestrenova 8.0 processing software and rate constants were calculated using GraphPad Prism v8.0 software.

[5] = Penicillin-G amidase mediated kinetic analysis of elimination at physiological pH; format: physicochemical; conditions: pH 7.4, 37° C.
Experimental: Stocks of 2-phenylacetyl-para-aminobenzyl ketol were made up in DMF at a concentration of 10 mM. For a reaction, 17.5 μL of ketol stock was added to 17.5 μL of a 10 mM stock of internal standard in DMF and 310 μL of PBS at pH 7.4. To initiate a reaction, 5 μL of a suspension of Penicillin-G amidase (PenG, Sigma Aldrich enzyme 76427, 5-10 U/mg) was added. In control samples 5 μL of PBS was added in place of the enzyme. Test and control samples were then incubated at 37° C. with shaking. At the recorded time points, 20 μL aliquots of the reactions were analysed by HPLC (254 nm, ThermoFisher U3000). HPLC column: Phenomenex Kinetex C18, 5 μm, 50×4.6 mm, 100 Å; flow=1 mL/min. Gradient and solvent system for assay with 2-phenylacetyl-PAB-PhQ 21: A=H2O, B=acetonitrile, t=0-1 min 0% B, t=1-10 min 0-100% B, t=10-11 min 0% B. Gradient and solvent system for assay with 2-phenylacetyl-PAB-BL 22 and 2-phenylacetyl-PAB-DN 23: A=H2O+0.1% formic acid, B=acetonitrile+0.1% formic acid, t=0-1 min 0% B, t=1-10 min 0-40% B, t=10-16 min 40-50% B, t=16.1 min 100% B, t=16.1-18 min 100% B, t=18-20 min 0% B. Peaks were identified by LCMS analysis and comparison with pure compounds. Values described represent peak area (mAU*min) divided by peak area of internal standard. Recorded values are averages of three independent reactions and error bars display standard error of the mean. Fitting was performed using GraphPad Prism 8 software. Rate and half-life measurements were calculated by consumption of intermediate para-aminobenzyl ketol and formation of product quinone.

[6] = pH-rate aqueous kinetic analysis of fragmentation (para-aminobenzyl ketols); format: physicochemical; conditions: for pH at which elimination rate peaks / half-life at 0.155 mM: citrate-phosphate buffer; for half-life at 0.155 mM: pH 7, pH 7, read-out: release t1/2 (converted)
Experimental: pH-rate analysis was performed by adaption of the PenG assay. To obtain deprotected para-aminobenzyl ketol species, 2-phenylacetyl protected ketol was dissolved in PBS with 33% DMF to a concentration of 3.3 mM. 20 μL of a stock solution of PenG was added to 600 μL of this stock and incubated for 20 min at 37° C. 20 μL of a 100 mM stock of internal standard in DMSO was added. Reactions were then set up immediately. For a reaction, 10 μL of the amino-benzyl ketol/standard stock was added to 190 μL of citrate-phosphate buffer at the specified pH to obtain an aqueous solution containing 1.8% DMSO. Test samples were incubated at 37° C. with shaking. At the recorded time points, 20 μL aliquots of the reactions were analysed by HPLC (254 nm, ThermoFisher U3000). HPLC conditions: column Phenomenex Kinetex C18 5 μm, 50×4.6 mm, 100 Å; solvent system A=H2O, B=acetonitrile; flow=1 mL/min. Gradient and solvent system for assay with PAB-PhQ 7: A=H2O, B=acetonitrile, t=0-1 min 0% B, t=1-10 min 0-100% B, t=10-11 min 0% B. Gradient and solvent system for assay with PAB-BL 10 and PAB-DN 18: A=H2O+0.1% formic acid, B=acetonitrile+0.1% formic acid, t=0-1 min 0% B, t=1-10 min 0-40% B, t=10-16 min 40-50% B, t=16.1 min 100% B, t=16.1-18 min 100% B, t=18-20 min 0% B. Values described represent peak area (mAU*min) divided by peak area of internal standard. Where necessary, peaks were deconvoluted using Origin fitting software. Recorded values are averages of three independent reactions and error bars display standard error of the mean. Values were fitted using GraphPad Prism software. Rate and half-life measurements were calculated based on disappearance of the para-aminobenzyl ketol species.

[7] = system: MOLM-13; test: Viability assay with small molecule prodrugs, Trypan Blue exclusion, MOLM-13; format: cell-based; conditions: 5 μM, 24 h timepoint
Experimental: For assays assessing cytotoxicity of β-lapachone versus small molecule dipeptide prodrugs, suspension cells were plated into 24 well plates at a density of 2.5×10^5 cells/mL in 240 μL. Serial dilutions of compound were made up in PBS. 60 μL of each stock of either PBS, or compound in PBS was added to the cells to achieve the desired final concentration. After the specified incubation time, toxicity was assessed by counting of live cells using the Trypan Blue exclusion method with a Countess II Automated Cell Counter (ThermoFisher Scientific) according to the manufacturer's instructions. Cell viability was determined by division of average live cell number of treated wells by average live cell number for control wells treated with PBS only. Values recorded are the mean of three repeat wells, with error bars representing the standard error of the mean for each concentration tested. IC50 values were calculated using GraphPad Prism software.

Compound: COc1cc(O[C@@H]2O[C@H](C(=O)O)[C@@H](O)[C@H](O)[C@H]2O)ccc1CC1(O)C(=O)C2=C(OC(C)(C)CC2)c2ccccc21 (single isomer, unassigned) [Compound 37d]
- release rate compared with other derivatives ([1]; pH 6-10 (FIG. 7)): orders of magnitude faster release
- IC50 [2]: 0.904 µM
- toxicity without the β-glucuronidase enzyme [2]: no toxicity
- toxicity without the β-glucuronidase enzyme [3]: no toxicity
- IC50 [3]: 2.99 µM

Compound: Nc1ccc(CC2(O)C(=O)c3ccccc3-c3ccccc32)cc1 (centres unmarked) [Compound 7, 10-(4-aminobenzyl)-10-hydroxyphenanthren-9(10H)-one]
- rate of consumption of 7 (kobs) ([4]; first-order fit): 6.18±0.12×10^−5 s^−1
- rate of formation of product 4 (kobs) ([4]; from 7): 6.55±0.22×10^−5 s^−1
- time to complete release ([4]; release of 4 from 7): ≤ 20 h
- elimination of 7, rate kobs ([5]; intermediate 7 generated from 21): 9.72 (±2.88)×10^−6 s^−1
- pH at which elimination rate peaks ([6]; 37° C.): 5-6

Compound: CC1(C)CCC2=C(O1)c1ccccc1C(O)(Cc1ccc(N)cc1)C2=O (centres unmarked) [Compound 10, 6-(4-aminobenzyl)-6-hydroxy-2,2-dimethyl-2,3,4,6-tetrahydro-5H-benzo[h]chromen-5-one]
- pH at which elimination rate peaks ([6]; 37° C.): 3
- half-life at 0.155 mM ([6]; additional repeats of the experiments): 542 days
- half-life at 0.155 mM ([6]; initially reported value): 32.9 days
- release rate kobs ([6]; pH 7, initially reported value): 2.4e-07 s⁻¹
- elimination resulting in formation of 1 ([6]; pH≥6 within 72 h, 37° C.): Negligible elimination

Compound: O=C(Cc1ccccc1)Nc1ccc(CC2(O)C(=O)c3ccccc3-c3ccccc32)cc1 (centres unmarked) [Compound 21, 2-Phenyl-acetyl-para-aminobenzyl phenanthrene-ketol]
- formation of PhQ 4, rate kobs ([5]; following addition of Penicillin-G amidase to 21): 1.15 (±0.66)×10^−5 s^−1
- stability without added enzyme ([5]; no Penicillin-G amidase): stable

Compound: CC(=O)Oc1c2c(c3ccccc3c1OC(C)=O)OC(C)(C)CC2 [Compound 29, 2,2-dimethyl-3,4-dihydro-2H-benzo[h]chromene-5,6-diyl diacetate]
- toxicity to MOLM-13 [7]: complete cell death

Compound: CC1(C)CCC2=C(O1)c1ccccc1C(O)(Cc1cc(F)c(O[C@@H]3O[C@H](C(=O)O)[C@@H](O)[C@H](O)[C@H]3O)c(F)c1)C2=O (stereo partly drawn) [Compound 37b, (2S,3S,4S,5R,6S)-6-(2,6-difluoro-4-((6-hydroxy-2,2-dimethyl-5-oxo-3,4,5,6-tetrahydro-2H-benzo[h]chromen-6-yl)methyl)phenoxy)-3,4,5-trihydroxytetrahydro-2H-pyran-2-carboxylic acid]
- elimination rate compared with plain PHB linker ([1]; pH 3-7 (FIG. 6)): faster
- elimination rate compared with plain PHB linker 37a ([1]; pH 3-8.5 (FIG. 7)): faster
- release rate of β-lapachone, kobs ([1]; pH 7, 37° C., after β-glucuronide deprotection, first experiments): 2.68e-06 s⁻¹
- quinone release rate, kobs ([1]; pH 7, additional fragmentation experiments): 4.2e-06 s⁻¹
- elimination rate compared with plain PHB linker ([1]; pH 8-10 (FIG. 6)): slower
- elimination rate compared with plain PHB linker 37a ([1]; pH 9-10 (FIG. 7)): slower
- IC50 [2]: 13.4 µM
- toxicity without the β-glucuronidase enzyme [2]: no toxicity
- toxicity without the β-glucuronidase enzyme [3]: no toxicity
- IC50 [3]: 24.4 µM

Compound: para-Aminobenzyl dunni-ketol [Compound 18]
- elimination rate compared with PAB-BL 10 ([6]; 37° C., range of pH values): very similar rate

Source: patent US20250170252A1, “QUINONE PROTECTED FORMS AND CONJUGATES” (CAMBRIDGE ENTERPRISE LIMITED, priority 2022, published 2025)
